Laboratory results: ChEMBL document CHEMBL1201862, “PubChem BioAssay data set” (2004)
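Exposure lasted 48 hours, with cells grown in 96-well plates and compounds tested at five concentrations. GI50 is the concentration that inhibits growth by half.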 Activity calls are given as the source filed them. Rule as the data show it: active = GI50 up to about 1.1 µM and inactive = higher.

What was measured:
Assay in all cases: growth of human tumour cells (NCI), 48 h
M19-MEL = tested on: M19-MEL
DMS-114 = tested on: DMS-114
DMS-273 = tested on: DMS-273
DLD-1 = tested on: DLD-1
HOP-18 = tested on: HOP-18
RXF 631 = tested on: RXF 631
KM-20L2 = tested on: KM-20L2
SNB-78 = tested on: SNB-78
XF498 = tested on: XF498

Measured: GI50

COC(=O)C(=O)C(C(=O)C=C(C)C)C(=O)C(=O)Nc1ccc(Cl)cc1C (stereo not given)
inactive: M19-MEL > 100 µM | DMS-114 92 µM | DMS-273 35.6 µM | DLD-1 > 100 µM | HOP-18 > 100 µM | RXF 631 > 100 µM | KM-20L2 > 100 µM

O=C(CCN1CCCCC1CCO)Nc1ccc2c(c1)C(=O)c1ccc(NC(=O)CCN3CCCCC3CCO)cc1C2=O (stereo not given)
inactive: M19-MEL 26.4 µM | DMS-114 4.08 µM | DMS-273 2.83 µM | DLD-1 2.19 µM | HOP-18 2.25 µM | KM-20L2 20.1 µM | SNB-78 3.2 µM

CC1(C)C2CCC13C(=O)C1OC3(C2)C2C(=O)N(c3ccccc3)C(=O)C12 (stereo not given)
inactive: DMS-114 > 100 µM | DMS-273 > 100 µM | HOP-18 > 100 µM | RXF 631 > 100 µM | KM-20L2 > 100 µM | SNB-78 > 100 µM

CC(C)(C)c1ccccc1NS(=O)(=O)c1ccccc1
inactive: M19-MEL > 100 µM | DMS-114 49.9 µM | DMS-273 > 100 µM | XF498 > 100 µM | RXF 631 > 100 µM | KM-20L2 94 µM | SNB-78 > 100 µM

Nc1nc(-c2ccco2)cc(-c2ccco2)n1
inactive: M19-MEL > 100 µM | DMS-114 > 100 µM | DMS-273 5.14 µM | XF498 > 100 µM | KM-20L2 > 100 µM

Cn1ncnc1CCc1ccccc1
inactive: M19-MEL > 100 µM | DMS-114 > 100 µM | DMS-273 > 100 µM | HOP-18 > 100 µM | KM-20L2 > 100 µM | SNB-78 > 100 µM

N/N=C1\c2ccccc2C2/C(=N\N)c3ccccc3C12 (stereo not given)
inactive: M19-MEL > 100 µM | DMS-114 > 100 µM | DMS-273 > 100 µM | DLD-1 > 100 µM | HOP-18 57.4 µM | KM-20L2 > 100 µM

CCC(C)CNC1=C(NC(C)=O)C(=O)c2ccccc2C1=O (stereo not given)
inactive: M19-MEL 20.7 µM | DMS-273 > 100 µM | DLD-1 > 100 µM | XF498 > 100 µM | KM-20L2 > 100 µM | SNB-78 > 100 µM

NS(=O)(=O)c1ccc(NC(=O)c2cccn3c(=O)c4ccccc4nc23)cc1
inactive: M19-MEL > 100 µM | DMS-114 > 100 µM | DLD-1 > 100 µM | XF498 > 100 µM | HOP-18 > 100 µM | RXF 631 > 100 µM | KM-20L2 > 100 µM | SNB-78 > 100 µM

C/C=C(/CCC1NCCC2c3ccccc3NC12)[Si](C)(C)C (stereo not given)
inactive: M19-MEL 12 µM | DMS-114 4.53 µM | DMS-273 8.55 µM | DLD-1 5.16 µM | XF498 3.15 µM | HOP-18 13.7 µM | RXF 631 10.4 µM | KM-20L2 4.62 µM | SNB-78 11.6 µM

COc1ccc(O)cc1C=O
inactive: M19-MEL 77.1 µM | DMS-114 32.8 µM | DMS-273 87.9 µM | DLD-1 > 100 µM | XF498 99.1 µM | HOP-18 > 100 µM | RXF 631 > 100 µM | KM-20L2 > 100 µM | SNB-78 > 100 µM

N#CCCN(CCC#N)c1ccc(/C=C2\N=C(COc3ccc(Cl)cc3Cl)OC2=O)cc1
inactive: M19-MEL > 100 µM | DMS-114 > 100 µM | DMS-273 > 100 µM | DLD-1 > 100 µM | XF498 > 100 µM | RXF 631 > 100 µM | KM-20L2 > 100 µM | SNB-78 > 100 µM

COc1ccc(C2S/C(=C\c3cccc(O)c3)C(=O)N2NC(=O)Cc2ccccc2)cc1 (stereo not given)
inactive: M19-MEL > 100 µM | DMS-114 > 100 µM | DMS-273 > 100 µM | DLD-1 > 100 µM | HOP-18 > 100 µM

Cc1c(-c2nnc(-c3ccc(Cl)cc3)o2)c(=O)n(-c2ccccc2)n1C
inactive: M19-MEL > 100 µM | DMS-114 > 100 µM | DMS-273 > 100 µM | DLD-1 > 100 µM | XF498 > 100 µM | HOP-18 > 100 µM | KM-20L2 > 100 µM | SNB-78 > 100 µM

CN(C)c1ccc(/C=C(\C#N)C(=O)c2ccccc2)cc1Br
inactive: DMS-114 > 100 µM | DMS-273 > 100 µM | DLD-1 67.5 µM | XF498 > 100 µM | HOP-18 > 100 µM | RXF 631 > 100 µM | KM-20L2 > 100 µM | SNB-78 > 100 µM

CCCCCC/C=C1\CCC(CN2CCCC2)C1=O (stereo not given)
inactive: M19-MEL 11.4 µM | DMS-114 13.8 µM | DMS-273 12.7 µM | DLD-1 5.21 µM | XF498 17.4 µM | HOP-18 18.7 µM | RXF 631 20.1 µM | KM-20L2 20.5 µM | SNB-78 26 µM

CN(C)C(=O)c1ccc([N+](=O)[O-])cc1
inactive: M19-MEL > 100 µM | DMS-114 > 100 µM | DMS-273 > 100 µM | DLD-1 > 100 µM | KM-20L2 > 100 µM | SNB-78 > 100 µM

CCOc1ccccc1/N=N/c1ccc2oc(=O)c(C(=O)Nc3cccc(C)c3)cc2c1
inactive: M19-MEL 27 µM | DMS-114 23.1 µM | DMS-273 34.3 µM | DLD-1 24.2 µM | XF498 34.6 µM | RXF 631 34.5 µM | KM-20L2 43.5 µM | SNB-78 24.5 µM

O=C1c2c(c3c4ccccc4[nH]c3c3[nH]c4ccccc4c23)C(=O)N1Cc1ccccc1
inactive: M19-MEL 3.64 µM | DMS-114 2.82 µM | DMS-273 2.74 µM | DLD-1 3.64 µM | XF498 2 µM | RXF 631 2.32 µM | KM-20L2 2.94 µM | SNB-78 3.06 µM

COC(=O)CC[C@]12C[C@]13CC[C@]1(C)C4C(C)C[C@]5(CC(C)C(=O)O5)OC4CC1(C)C3CCC2C(C)(C)O (stereo not given in full)
inactive: M19-MEL 48 µM | DMS-114 59.7 µM | DMS-273 32.7 µM | DLD-1 51.8 µM | XF498 58.6 µM | HOP-18 > 100 µM | KM-20L2 > 100 µM | SNB-78 89.9 µM

C[C@@H]1C[C@]2(C[C@@H](C)C3[C@@H](CC4(C)[C@@H]5CCC6C(C)(C)OC(=O)C=C[C@]67C[C@@]5(CC[C@]34C)OO7)O2)OC1=O (stereo not given in full)
inactive: DMS-114 > 100 µM | DMS-273 > 100 µM | DLD-1 52.7 µM | XF498 17.6 µM | HOP-18 > 100 µM | SNB-78 52.5 µM

C[C@]12CCC(=O)C[C@H]1CCC(O)[C@@H]2Br (stereo not given in full)
inactive: M19-MEL > 100 µM | DMS-114 > 100 µM | DMS-273 > 100 µM | DLD-1 > 100 µM | XF498 > 100 µM | HOP-18 > 100 µM | RXF 631 > 100 µM | KM-20L2 > 100 µM

Oc1c2c(nc3cc4c(cc13)OCO4)-c1ccccc1CC2
inactive: M19-MEL > 100 µM | DMS-114 > 100 µM | DMS-273 > 100 µM | DLD-1 > 100 µM | XF498 > 100 µM | RXF 631 > 100 µM | KM-20L2 > 100 µM
